Measured values taken from ChEMBL document CHEMBL4118098, “Discovery of DS28120313 as a potent orally active hepcidin production inhibitor: Design and optimization of novel 4,6-disubstituted indazole derivatives” (Bioorg Med Chem Lett, 2017).

Key:
[1] = system: Epidermal growth factor receptor (Homo sapiens), P00533 [L858R,T790M]; assay: Inhibition of EGFR T790M/L858R double mutant (unknown origin) at 0.19 uM relative to control
[2] = biological target: STE20-like serine/threonine-protein kinase (Homo sapiens) (UniProt Q9H2G2); assay: Inhibition of SLK (unknown origin) at 0.19 uM relative to control
STE20-like serine/threonine-protein kinase (Homo sapiens), sequence (Q9H2G2 whole entry, looked up): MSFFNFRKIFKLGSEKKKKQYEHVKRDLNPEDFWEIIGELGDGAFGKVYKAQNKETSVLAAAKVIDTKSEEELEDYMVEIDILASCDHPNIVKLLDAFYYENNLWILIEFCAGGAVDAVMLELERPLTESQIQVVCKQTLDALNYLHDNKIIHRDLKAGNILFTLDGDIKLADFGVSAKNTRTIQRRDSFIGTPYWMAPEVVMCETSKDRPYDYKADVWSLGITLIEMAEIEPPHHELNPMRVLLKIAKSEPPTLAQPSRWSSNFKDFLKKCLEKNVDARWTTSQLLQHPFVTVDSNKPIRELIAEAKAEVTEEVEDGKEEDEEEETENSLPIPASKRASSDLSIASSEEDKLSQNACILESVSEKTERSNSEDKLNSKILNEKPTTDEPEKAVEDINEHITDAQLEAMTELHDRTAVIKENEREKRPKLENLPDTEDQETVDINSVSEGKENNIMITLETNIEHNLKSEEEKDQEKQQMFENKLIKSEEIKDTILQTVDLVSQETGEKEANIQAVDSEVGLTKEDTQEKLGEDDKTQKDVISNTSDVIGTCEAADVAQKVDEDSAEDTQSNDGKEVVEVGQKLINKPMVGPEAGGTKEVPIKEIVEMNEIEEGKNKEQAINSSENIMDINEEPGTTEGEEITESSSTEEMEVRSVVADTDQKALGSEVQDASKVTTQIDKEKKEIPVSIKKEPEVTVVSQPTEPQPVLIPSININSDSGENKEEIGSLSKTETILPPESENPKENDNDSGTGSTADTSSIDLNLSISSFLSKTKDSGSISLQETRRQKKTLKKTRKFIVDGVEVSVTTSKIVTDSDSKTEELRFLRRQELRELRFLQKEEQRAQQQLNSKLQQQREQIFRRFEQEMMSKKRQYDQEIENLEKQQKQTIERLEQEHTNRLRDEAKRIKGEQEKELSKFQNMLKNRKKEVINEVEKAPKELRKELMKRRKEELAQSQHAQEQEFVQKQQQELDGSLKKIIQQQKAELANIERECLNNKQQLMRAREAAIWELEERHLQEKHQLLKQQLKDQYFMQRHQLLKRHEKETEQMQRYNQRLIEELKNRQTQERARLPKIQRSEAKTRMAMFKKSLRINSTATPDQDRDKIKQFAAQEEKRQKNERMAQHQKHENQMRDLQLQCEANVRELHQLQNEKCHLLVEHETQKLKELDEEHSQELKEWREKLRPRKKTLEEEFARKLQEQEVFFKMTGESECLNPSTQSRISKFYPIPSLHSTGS

[3] = biological target: Fibroblast growth factor receptor 1 (Homo sapiens) (UniProt P11362); assay: Inhibition of FGFR1 (unknown origin) at 0.19 uM relative to control
Fibroblast growth factor receptor 1 (Homo sapiens), sequence (P11362 22-822 limits assumed): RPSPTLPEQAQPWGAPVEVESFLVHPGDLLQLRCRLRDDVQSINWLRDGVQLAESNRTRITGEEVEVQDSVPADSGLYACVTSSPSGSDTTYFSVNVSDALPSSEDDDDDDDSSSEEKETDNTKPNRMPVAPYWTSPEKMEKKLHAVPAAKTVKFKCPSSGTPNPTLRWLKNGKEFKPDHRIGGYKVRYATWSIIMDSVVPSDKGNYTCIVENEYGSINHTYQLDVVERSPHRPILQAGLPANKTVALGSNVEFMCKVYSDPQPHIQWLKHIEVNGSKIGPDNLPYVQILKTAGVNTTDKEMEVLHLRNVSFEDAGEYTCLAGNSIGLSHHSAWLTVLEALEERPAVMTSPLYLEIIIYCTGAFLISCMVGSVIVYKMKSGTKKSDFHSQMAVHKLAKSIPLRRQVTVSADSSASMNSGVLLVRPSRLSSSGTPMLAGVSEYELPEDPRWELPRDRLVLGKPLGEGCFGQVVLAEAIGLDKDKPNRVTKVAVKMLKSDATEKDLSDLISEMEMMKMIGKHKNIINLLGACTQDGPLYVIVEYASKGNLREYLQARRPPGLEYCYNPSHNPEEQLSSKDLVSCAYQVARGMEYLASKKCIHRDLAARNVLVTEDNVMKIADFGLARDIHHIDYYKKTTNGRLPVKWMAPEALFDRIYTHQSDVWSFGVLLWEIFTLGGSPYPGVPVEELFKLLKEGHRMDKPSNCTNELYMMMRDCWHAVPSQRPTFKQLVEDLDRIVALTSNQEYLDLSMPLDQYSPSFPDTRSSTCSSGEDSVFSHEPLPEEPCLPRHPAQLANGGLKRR

[4] = biological target: Tyrosine-protein kinase Yes (Homo sapiens) (UniProt P07947); assay: Inhibition of Yes (unknown origin) at 0.19 uM relative to control
[5] = biological target: T1, Testis-specific serine/threonine-protein kinase 2 (Homo sapiens) (UniProt Q96PF2); assay: Inhibition of TSSK2 (unknown origin) at 0.19 uM relative to control
T1 sequence (whole entry): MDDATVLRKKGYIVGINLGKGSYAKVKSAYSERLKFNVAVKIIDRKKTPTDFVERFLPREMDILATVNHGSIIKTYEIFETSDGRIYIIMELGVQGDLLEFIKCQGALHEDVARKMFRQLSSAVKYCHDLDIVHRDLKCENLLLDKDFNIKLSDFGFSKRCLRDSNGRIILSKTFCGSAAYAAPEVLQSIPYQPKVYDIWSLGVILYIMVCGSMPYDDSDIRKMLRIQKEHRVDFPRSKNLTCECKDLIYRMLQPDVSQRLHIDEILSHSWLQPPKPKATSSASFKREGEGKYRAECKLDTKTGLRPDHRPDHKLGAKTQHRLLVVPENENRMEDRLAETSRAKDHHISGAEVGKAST

[6] = biological target: Tyrosine-protein kinase ABL1 (Homo sapiens) (UniProt P00519); assay: Inhibition of ABL (unknown origin) at 0.19 uM relative to control
[7] = biological target: T2, Testis-specific serine/threonine-protein kinase 1 (Homo sapiens) (UniProt Q9BXA7); assay: Inhibition of TSSK1 (unknown origin) at 0.19 uM relative to control
T2 sequence (whole entry): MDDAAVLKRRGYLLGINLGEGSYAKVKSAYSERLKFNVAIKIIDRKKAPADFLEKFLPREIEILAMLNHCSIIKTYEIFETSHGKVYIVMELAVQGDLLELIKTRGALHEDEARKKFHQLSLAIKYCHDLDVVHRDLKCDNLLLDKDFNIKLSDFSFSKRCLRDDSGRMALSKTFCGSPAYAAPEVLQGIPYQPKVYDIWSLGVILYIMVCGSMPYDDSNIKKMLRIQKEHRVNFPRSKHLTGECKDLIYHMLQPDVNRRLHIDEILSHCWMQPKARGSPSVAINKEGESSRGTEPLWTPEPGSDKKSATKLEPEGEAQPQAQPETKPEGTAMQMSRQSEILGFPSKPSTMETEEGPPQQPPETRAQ

[8] = biological target: Ribosomal protein S6 kinase alpha-6 (Homo sapiens) (UniProt Q9UK32); assay: Inhibition of RSK4 (unknown origin) at 0.164 uM relative to control
[9] = biological target: T3, Serine/threonine-protein kinase D1 (Homo sapiens) (UniProt Q15139); assay: Inhibition of PKD1 (unknown origin) at 0.164 uM relative to control
T3 sequence (whole entry): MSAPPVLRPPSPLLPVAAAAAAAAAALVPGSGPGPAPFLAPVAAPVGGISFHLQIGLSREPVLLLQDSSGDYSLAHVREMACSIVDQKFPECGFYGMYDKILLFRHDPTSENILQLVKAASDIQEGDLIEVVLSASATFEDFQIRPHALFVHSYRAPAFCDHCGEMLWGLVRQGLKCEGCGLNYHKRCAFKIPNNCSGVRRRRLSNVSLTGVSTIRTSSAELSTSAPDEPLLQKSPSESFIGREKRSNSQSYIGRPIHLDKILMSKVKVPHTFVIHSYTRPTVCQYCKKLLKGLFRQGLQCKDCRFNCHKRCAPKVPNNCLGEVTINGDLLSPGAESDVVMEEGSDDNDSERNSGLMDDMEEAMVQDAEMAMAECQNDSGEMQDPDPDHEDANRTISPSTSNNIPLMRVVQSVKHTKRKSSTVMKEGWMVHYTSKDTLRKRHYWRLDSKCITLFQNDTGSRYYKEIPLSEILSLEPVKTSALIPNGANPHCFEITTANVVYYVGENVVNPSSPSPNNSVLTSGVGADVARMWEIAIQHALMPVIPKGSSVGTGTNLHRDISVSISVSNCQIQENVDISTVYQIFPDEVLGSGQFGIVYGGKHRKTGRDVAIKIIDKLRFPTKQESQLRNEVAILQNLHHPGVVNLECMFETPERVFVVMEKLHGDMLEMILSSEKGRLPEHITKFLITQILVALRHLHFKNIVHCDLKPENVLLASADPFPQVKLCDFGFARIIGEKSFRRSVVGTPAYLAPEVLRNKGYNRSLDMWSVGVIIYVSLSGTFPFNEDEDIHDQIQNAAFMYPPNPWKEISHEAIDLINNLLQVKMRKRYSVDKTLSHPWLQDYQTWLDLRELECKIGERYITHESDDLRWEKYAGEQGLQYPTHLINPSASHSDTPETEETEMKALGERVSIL

[10] = biological target: Vascular endothelial growth factor receptor 1 (Homo sapiens) (UniProt P17948); assay: Inhibition of FLT1 (unknown origin) at 0.164 uM relative to control
[11] = biological target: MAP kinase-activated protein kinase 3 (Homo sapiens) (UniProt Q16644); assay: Inhibition of MAPKAPK3 (unknown origin) at 0.164 uM relative to control
MAP kinase-activated protein kinase 3 (Homo sapiens), sequence (Q16644 whole entry, looked up): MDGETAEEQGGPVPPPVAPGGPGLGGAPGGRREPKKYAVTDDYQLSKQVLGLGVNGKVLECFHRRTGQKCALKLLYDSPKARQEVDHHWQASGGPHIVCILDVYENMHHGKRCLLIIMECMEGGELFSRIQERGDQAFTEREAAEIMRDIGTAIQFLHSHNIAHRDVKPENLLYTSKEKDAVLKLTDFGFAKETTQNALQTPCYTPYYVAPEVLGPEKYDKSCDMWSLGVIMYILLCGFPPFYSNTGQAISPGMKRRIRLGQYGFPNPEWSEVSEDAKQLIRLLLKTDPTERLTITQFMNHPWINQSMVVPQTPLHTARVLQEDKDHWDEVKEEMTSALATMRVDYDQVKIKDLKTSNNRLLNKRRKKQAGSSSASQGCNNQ

[12] = biological target: Serine/threonine-protein kinase pim-2 (Homo sapiens) (UniProt Q9P1W9); assay: Inhibition of PIM2 (unknown origin) at 0.164 uM relative to control
Serine/threonine-protein kinase pim-2 (Homo sapiens), sequence (Q9P1W9 whole entry, looked up): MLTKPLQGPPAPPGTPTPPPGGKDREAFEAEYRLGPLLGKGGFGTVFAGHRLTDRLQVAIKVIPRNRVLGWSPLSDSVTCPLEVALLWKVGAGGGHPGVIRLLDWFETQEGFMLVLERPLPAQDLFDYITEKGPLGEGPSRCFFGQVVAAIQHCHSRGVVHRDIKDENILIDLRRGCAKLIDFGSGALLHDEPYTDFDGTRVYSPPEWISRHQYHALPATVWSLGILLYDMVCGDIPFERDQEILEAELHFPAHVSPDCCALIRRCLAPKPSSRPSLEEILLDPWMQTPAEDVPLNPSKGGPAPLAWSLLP

[13] = biological target: Aurora kinase B (Homo sapiens) (UniProt Q96GD4); assay: Inhibition of AurB (unknown origin) at 0.164 uM relative to control
[14] = biological target: High affinity nerve growth factor receptor (Homo sapiens) (UniProt P04629); assay: Inhibition of TRKA (unknown origin) at 0.164 uM relative to control
[15] = biological target: Serine/threonine-protein kinase 4 (Homo sapiens) (UniProt Q13043); assay: Inhibition of MST1 (unknown origin) at 0.164 uM relative to control
[16] = biological target: Tyrosine-protein kinase Lyn (Homo sapiens) (UniProt P07948); assay: Inhibition of LYN (unknown origin) at 0.164 uM relative to control
Tyrosine-protein kinase Lyn (Homo sapiens), sequence (P07948 2-512 limits assumed): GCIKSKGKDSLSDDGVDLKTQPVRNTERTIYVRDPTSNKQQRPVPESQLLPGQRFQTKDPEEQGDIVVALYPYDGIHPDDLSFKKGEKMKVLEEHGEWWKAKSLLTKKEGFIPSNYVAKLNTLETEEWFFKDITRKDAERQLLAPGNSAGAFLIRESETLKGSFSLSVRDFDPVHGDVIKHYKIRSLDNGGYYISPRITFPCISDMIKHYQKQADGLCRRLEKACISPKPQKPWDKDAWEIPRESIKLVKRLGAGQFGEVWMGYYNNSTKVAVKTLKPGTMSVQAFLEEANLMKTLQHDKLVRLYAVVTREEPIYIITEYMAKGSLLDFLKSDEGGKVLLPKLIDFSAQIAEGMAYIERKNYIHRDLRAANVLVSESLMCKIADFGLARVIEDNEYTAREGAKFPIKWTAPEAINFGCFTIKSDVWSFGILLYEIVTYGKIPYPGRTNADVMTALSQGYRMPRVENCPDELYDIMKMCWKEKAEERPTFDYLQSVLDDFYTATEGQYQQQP

[17] = biological target: Discoidin domain-containing receptor 2 (Homo sapiens) (UniProt Q16832); assay: Inhibition of DDR2 (unknown origin) at 0.164 uM relative to control
[18] = system: Tyrosine-protein kinase ABL1 (Homo sapiens), P00519 [T315I]; assay: Inhibition of Abl T315I mutant (unknown origin) at 0.164 uM relative to control
[19] = biological target: Serine/threonine-protein kinase PAK 2 (Homo sapiens) (UniProt Q13177); assay: Inhibition of PAK2 (unknown origin) at 0.164 uM relative to control
Serine/threonine-protein kinase PAK 2 (Homo sapiens), sequence (Q13177 whole entry): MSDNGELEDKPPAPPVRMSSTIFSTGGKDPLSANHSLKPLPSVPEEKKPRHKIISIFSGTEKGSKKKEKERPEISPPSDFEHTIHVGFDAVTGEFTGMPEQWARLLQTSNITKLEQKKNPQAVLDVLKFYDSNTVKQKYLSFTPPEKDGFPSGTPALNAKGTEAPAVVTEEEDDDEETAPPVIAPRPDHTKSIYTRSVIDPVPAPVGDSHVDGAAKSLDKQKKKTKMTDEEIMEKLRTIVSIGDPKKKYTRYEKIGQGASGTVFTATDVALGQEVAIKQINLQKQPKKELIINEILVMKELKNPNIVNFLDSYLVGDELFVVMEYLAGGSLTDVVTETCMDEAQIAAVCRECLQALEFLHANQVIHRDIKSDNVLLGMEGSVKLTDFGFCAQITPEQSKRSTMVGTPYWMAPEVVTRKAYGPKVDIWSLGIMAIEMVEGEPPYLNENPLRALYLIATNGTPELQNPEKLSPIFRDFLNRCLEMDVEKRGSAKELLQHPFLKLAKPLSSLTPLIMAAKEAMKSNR

Epidermal growth factor receptor (Homo sapiens), P00533 [L858R,T790M], sequence (P00533 whole entry T790M/L858R, looked up): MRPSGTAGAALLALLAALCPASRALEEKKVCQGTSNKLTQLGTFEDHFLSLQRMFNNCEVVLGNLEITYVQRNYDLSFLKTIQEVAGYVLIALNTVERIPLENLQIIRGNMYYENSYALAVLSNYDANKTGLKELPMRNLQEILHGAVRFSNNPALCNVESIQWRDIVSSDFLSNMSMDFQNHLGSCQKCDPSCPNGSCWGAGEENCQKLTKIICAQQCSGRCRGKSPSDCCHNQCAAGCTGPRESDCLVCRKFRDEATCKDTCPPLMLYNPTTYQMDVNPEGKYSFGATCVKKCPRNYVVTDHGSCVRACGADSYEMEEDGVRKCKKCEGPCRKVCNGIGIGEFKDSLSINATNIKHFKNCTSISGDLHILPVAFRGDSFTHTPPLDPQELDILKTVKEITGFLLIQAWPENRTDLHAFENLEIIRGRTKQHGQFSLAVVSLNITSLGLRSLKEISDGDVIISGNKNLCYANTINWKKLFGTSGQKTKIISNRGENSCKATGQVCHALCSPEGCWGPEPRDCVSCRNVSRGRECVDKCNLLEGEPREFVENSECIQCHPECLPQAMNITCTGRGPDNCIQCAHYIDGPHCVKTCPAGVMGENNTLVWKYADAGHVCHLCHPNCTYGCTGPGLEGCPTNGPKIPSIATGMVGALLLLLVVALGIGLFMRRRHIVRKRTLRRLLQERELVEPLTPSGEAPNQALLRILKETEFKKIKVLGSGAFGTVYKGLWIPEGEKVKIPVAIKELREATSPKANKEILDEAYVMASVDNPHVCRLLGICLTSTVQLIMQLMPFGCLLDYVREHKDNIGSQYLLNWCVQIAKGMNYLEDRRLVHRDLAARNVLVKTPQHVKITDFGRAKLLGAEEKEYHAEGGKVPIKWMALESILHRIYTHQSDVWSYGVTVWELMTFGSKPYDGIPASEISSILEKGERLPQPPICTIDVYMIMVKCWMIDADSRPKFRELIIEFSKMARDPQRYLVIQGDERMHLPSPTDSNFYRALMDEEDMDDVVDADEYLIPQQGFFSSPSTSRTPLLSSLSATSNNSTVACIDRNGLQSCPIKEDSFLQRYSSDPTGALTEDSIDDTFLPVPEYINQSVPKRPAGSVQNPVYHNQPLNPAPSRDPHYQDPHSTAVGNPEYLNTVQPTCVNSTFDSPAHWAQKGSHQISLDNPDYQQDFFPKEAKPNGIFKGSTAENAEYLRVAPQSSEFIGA

Row | inhibition [1] [%] | inhibition [2] [%] | inhibition [3] [%] | inhibition [4] [%] | inhibition [5] [%] | inhibition [6] [%] | inhibition [7] [%] | inhibition [8] [%] | inhibition [9] [%] | inhibition [10] [%] | inhibition [11] [%] | inhibition [12] [%] | inhibition [13] [%] | inhibition [14] [%] | inhibition [15] [%] | inhibition [16] [%] | inhibition [17] [%] | inhibition [18] [%] | inhibition [19] [%] | SMILES
1 | -1 | 29.7 | 10.3 | 3.7 | -2 | 83.7 | -6.3 |  |  |  |  |  |  |  |  |  |  |  |  | Cc1[nH]nc(C2CC2)c1-c1ccc2c(-c3ccc(N4CCN(C)CC4)nc3)n[nH]c2c1
2 |  |  |  |  |  |  |  | 13.3 | -3 | 1.3 | 6.3 | -6 | 1 | 1.3 | -2.3 | 10 | 1.7 | -3.7 | 12 | COC(=O)Nc1cc(-c2c(C3CC3)n[nH]c2C)cc2[nH]ncc12
